Where two headings read alike, the source gives them in different places.

Series [1] relates to cerulein-induced pancreatitis in T7K24R mice. In words: Cerulein-induced pancreatitis in T7K24R mice. The format is in vivo, mouse. As to conditions: single oral gavage 200 mg/kg; 15 treated mice. The procedure:
Pancreatitis was induced in T7K24R mice with 8 hourly intraperitoneal injections of the secretagogue peptide cerulein used in a dose of 50 μg/kg. Cerulein (catalog number C9026, MilliporeSigma) was dissolved in sterile normal saline at 10 μg/mL concentration. Mice were sacrificed 1, 24, 48, 72, or 96 hours from the first cerulein injection, as indicated, and the pancreas and blood were harvested. Details of histological analysis and measurement of plasma amylase (4 μL assayed) were reported previously ([29]–[31]).
Control mice were given gavage of the vehicle solution (Captisol; see below) or regular chow.
Captisol (β-cyclodextrin sulfobutyl ethers, sodium salts, lot number NC-04A-180185) was obtained from Cydex Pharmaceuticals (through Thermo Fisher Scientific) and was dissolved in sterile normal saline (3.5 g in 10 mL). […] The mixture was then compressed into pellets using the barrel of a 10 mL plastic syringe and a plunger. The prodrug-containing pellets were allowed to dry at 24°C for 2 days and stored at 4°C until use.

For series [2] the following is noted: human volunteers, cited from earlier work.

On to `[H]/N=C(/N)c1ccc(NCc2nc3cc(C(=O)N(CCC(=O)O)c4ccccn4)ccc3n2C)cc1` [dabigatran], for which, in series [1], the “share of mice with limited efficacy (less than 25% of normal acini preserved)” value was 30%. Further, the “steady-state plasma levels of dabigatran” value in series [2] (100 mg dabigatran etexilate 3 times daily) is “around 50 ng/mL”; in series [2] (200 mg dabigatran etexilate 3 times daily) it was roughly 100 ng/mL.

The values above are taken from publication PMC9675574 (JCI Insight, 2022).
